Experimental data published in ChEMBL document CHEMBL5321267, “Phomactinine, the First Nitrogen-Bearing Phomactin, Produced by Biatriospora sp. CBMAI 1333” (J Nat Prod, 2023).
Active and inactive are the calls of the source. The calls are words filed in the database; no cut-off is given here.

Target: Platelet-activating factor receptor (Homo sapiens) (UniProt P25105)
Test: Antagonist activity at PAFR in human KB cells assessed as inhibition of cPAF induced IL-8 release at 10 to 25 uM preincubated for 24 hrs followed by cPAF stimulation and measured after 6 hrs by ELISA method
Type: functional, cell-based
Conditions: filed as antagonist, dose 10-25 µM, time 30.0 hrs

Sequence of Platelet-activating factor receptor (Homo sapiens) (P25105 whole entry): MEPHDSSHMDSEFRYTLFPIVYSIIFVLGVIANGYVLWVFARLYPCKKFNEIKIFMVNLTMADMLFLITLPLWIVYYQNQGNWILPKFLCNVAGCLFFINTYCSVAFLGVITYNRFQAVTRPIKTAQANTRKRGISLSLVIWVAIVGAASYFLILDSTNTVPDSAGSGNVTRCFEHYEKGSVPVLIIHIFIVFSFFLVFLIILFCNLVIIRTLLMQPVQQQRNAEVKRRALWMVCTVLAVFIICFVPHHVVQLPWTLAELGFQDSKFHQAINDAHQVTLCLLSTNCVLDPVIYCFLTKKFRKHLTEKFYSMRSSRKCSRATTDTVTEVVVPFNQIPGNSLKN

inhibition: Active
SMILES: C/C1=C\CC[C@@]2(C)O[C@@H]2[C@@]23C(=O)NC=C2[C@@](C)(CC1)[C@H](C)C[C@@H]3O
